Each structure is given as a SMILES string. Read-outs that look alike come from different tables or passages of the source.

Data set [1] has as its target T1, SERT (Homo sapiens, UniProt P31645).
T1 construct: purchased Perkin-Elmer (Boston, MA, USA) RBHSTM400UA; host or cells: HEK-293 clonal cell line
The data set is described as follows: SERT competitive binding assay, [3H]-paroxetine, membranes from HEK-293 clonal cell line overexpressing SERT. As for the experimental part: To determine the binding of all compounds at SERT, competitive binding assays were performed according to previously reported procedures with some modifications. […] Control curve was performed with fluoxetine in the same experimental conditions. Non-specific binding was determined with 10 µM fluoxetine.
The IC50 and Ki values correspond to the results of three independent experiments, each in triplicate. All data are expressed as the mean ± SEM.

For data set [2], the target named is T2, D2 receptor (Homo sapiens, UniProt P14416).
T2 construct: purchased Perkin-Elmer (Boston, MA, USA) RBHD2CM400UA; host or cells: CHO-K1 clonal cell line
The data set is described as follows: D2 receptor competitive binding assay, [3H]-methylspiperone, membranes from CHO-K1 clonal cell line overexpressing D2 receptor. The note with it: 0.5 nM [3H]-methylspiperone, 2 h at 27 °C; mean ± SEM of three experiments, each in triplicate. As for the experimental part:
To determine the binding of all compounds at D2 receptor, competitive binding assays were performed according to provider indications with some modifications. […] Radioactivity was counted as described before.

For data set [3], the target named is T3, rat MAO-A (Rattus norvegicus, UniProt P21396).
T3 construct: using a crude rat brain mitochondrial suspension as a source of enzyme; from tissue; host or cells: rat brain (crude mitochondrial suspension)
T3 sequence (P21396 1-526): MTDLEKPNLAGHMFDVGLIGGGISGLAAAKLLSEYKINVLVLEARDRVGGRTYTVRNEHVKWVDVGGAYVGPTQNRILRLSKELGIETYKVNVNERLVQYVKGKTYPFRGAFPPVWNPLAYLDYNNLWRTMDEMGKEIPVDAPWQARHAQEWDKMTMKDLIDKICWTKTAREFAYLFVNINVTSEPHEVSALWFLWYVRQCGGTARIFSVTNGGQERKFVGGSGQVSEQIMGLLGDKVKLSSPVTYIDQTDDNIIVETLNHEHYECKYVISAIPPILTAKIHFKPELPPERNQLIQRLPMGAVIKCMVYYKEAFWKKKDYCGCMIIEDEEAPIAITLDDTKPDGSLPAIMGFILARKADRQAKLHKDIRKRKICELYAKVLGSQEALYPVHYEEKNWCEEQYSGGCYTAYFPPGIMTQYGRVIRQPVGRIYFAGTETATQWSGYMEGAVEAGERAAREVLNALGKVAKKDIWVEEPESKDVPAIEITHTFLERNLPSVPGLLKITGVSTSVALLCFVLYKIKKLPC
The data set is described as follows: MAO-A inhibition, crude rat brain mitochondrial suspension, serotonin substrate, HPLC-ED. It counts as biochemical. The note with it: 100 µM compound; serotonin 100 µM as substrate. As to the method:
The effects of the compounds on rat MAO-A activity were studied following a previously reported methodology, using a crude rat brain mitochondrial suspension as a source of enzyme. Serotonin (100 µM) was used as the selective substrate for MAO-A. This compound and its metabolite were detected by HPLC with electrochemical detection. As an exploratory evaluation, the percentage of MAO-A inhibition in the presence of 100 µM of the different compounds was determined, with the idea of evaluating in detail those compounds showing an inhibitory activity in the range of 70–100%.

Setting [4] is: 2 nM [3H]-paroxetine, 1 h at 27 °C, mean ± SEM of three experiments, each in triplicate, read-out: Ki SERT.
[5] abbreviates: SERT, experimental values used for CoMFA/CoMSIA (Table S3), read-out: Exp. pKi (converted).

T2 sequence (P14416 whole entry): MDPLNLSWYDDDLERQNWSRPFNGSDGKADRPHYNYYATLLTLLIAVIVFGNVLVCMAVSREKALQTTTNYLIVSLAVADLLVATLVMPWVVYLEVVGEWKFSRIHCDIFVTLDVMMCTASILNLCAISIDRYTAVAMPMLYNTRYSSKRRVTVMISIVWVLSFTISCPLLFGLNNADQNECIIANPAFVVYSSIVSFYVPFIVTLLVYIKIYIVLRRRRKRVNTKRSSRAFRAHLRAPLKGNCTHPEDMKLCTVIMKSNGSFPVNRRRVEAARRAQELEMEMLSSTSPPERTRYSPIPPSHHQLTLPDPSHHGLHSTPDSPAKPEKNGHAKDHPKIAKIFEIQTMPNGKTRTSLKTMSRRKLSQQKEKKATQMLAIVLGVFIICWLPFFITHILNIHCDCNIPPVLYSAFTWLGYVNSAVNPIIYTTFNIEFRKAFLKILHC
T1 sequence (P31645 whole entry): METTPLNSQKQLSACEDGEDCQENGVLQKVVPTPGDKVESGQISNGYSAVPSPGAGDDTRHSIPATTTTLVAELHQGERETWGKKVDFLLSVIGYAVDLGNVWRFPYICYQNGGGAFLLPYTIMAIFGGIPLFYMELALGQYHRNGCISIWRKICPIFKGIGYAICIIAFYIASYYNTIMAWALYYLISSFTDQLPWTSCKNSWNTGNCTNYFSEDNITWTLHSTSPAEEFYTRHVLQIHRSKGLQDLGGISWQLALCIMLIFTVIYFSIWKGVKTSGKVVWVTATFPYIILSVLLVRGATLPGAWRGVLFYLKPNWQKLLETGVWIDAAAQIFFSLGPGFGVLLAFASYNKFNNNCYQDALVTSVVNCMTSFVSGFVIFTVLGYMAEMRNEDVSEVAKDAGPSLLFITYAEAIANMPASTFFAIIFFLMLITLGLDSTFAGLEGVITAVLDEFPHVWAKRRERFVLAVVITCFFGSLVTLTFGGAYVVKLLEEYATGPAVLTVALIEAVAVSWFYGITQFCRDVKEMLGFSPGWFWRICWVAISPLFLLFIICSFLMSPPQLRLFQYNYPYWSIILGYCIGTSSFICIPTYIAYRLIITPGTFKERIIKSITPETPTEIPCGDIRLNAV

As for `O=C(CN1CCN(CCCc2c[nH]c3ccccc23)CC1)Nc1ccc(F)c(C(=O)NCCN2CCOCC2)c1` [Compound 13k, 2-Fluoro-5-(2-{4-[3-(1H-3-indolyl)-propyl]-1-piperazinyl}-acetylamino)-N-(2-morpholin-4-yl-ethyl) Benzamide], the melting point (in general, the temperature, or range, at which the solid turns liquid) lay in the range of 69.7 to 71.5 °C. The Ki in data set [1] (setting [4]) was determined as 0.0268 ± 0.00091 µM. For the same compound, in data set [2], the Ki amounted to 4.17 ± 0.335 µM. The inhibition (as a rule, the change of the read-out against control, counted positive when it falls) at 100 µM in data set [3] amounted to 34%.

In the case of `O=C(CN1CCN(CCCc2c[nH]c3ccccc23)CC1)N1CCOc2ccc(Cl)cc21` [Compound 7d, 1-(6-Chloro-2,3-dihydro-benzo[b][1,4]oxazin-4-yl)-2-{4-[3-(1H-3-indolyl)-propyl]-1-piperazinyl} ethanamide], the melting point fell in the range of 135.3 to 136.1 °C. Moreover, the Ki in data set [1] (setting [4]) is 0.0814 ± 0.00497 µM. This compound also registered a Ki in data set [2] of 1.27 ± 0.182 µM. Further, the inhibition at 100 µM in data set [3] was found to be 18%.

Compound `COc1ccc2c(c1)N(C(=O)CN1CCN(CCCc3c[nH]c4ccc(F)cc34)CC1)CCO2` [Compound 7l, 1-(6-Methoxy-2,3-dihydro-benzo[b][1,4]oxazin-4-yl)-2-{4-[3-(5-fluoro-1H-3-indolyl)-propyl]-1-piperazinyl} ethanamide] had a melting point of 94.5 to 97.3 °C. Moreover, in data set [1] (setting [4]), the Ki was determined as 0.0126 ± 0.00152 µM. In addition, the Ki in data set [2] is 3.32 ± 0.256 µM. This compound returned an inhibition at 100 µM in data set [3] of 52%.

`O=C(CN1CCN(CCCc2c[nH]c3ccc(F)cc23)CC1)N1CCOc2ccc(Br)cc21` [Compound 7k, 1-(6-Bromo-2,3-dihydro-benzo[b][1,4]oxazin-4-yl)-2-{4-[3-(5-fluoro-1H-3-indolyl)-propyl]-1-piperazinyl} ethanamide] showed a melting point of 102.8 to 103.9 °C. The Ki in data set [1] (setting [4]) worked out at 0.00563 ± 0.00082 µM. For the same compound, the Ki in data set [1] (setting [5]) was 0.00562 µM. Moreover, the Ki in data set [2] worked out at 1.04 ± 0.232 µM. The compound also gave an inhibition at 100 µM in data set [3] of 20%.

The compound `COc1ccc2c(c1)N(C(=O)CN1CCN(CCCc3c[nH]c4ccccc34)CC1)CCO2` [Compound 7f, 1-(6-Methoxy-2,3-dihydro-benzo[b][1,4]oxazin-4-yl)-2-{4-[3-(1H-3-indolyl)-propyl]-1-piperazinyl} ethanamide] had a melting point of 123.6 to 125.1 °C. Besides, in data set [1] (setting [4]), the Ki amounted to 0.412 ± 0.0579 µM. The compound further showed a Ki in data set [2] of 4.41 ± 0.647 µM. The inhibition at 100 µM in data set [3] was 58%.

`O=C(CN1CCN(CCCc2c[nH]c3ccc(Br)cc23)CC1)N1CCOc2ccccc21` [Compound 7m, 1-(2,3-Dihydro-benzo[b][1,4]oxazin-4-yl)-2-{4-[3-(5-bromo-1H-3-indolyl)-propyl]-1-piperazinyl} ethanamide]: the melting point lay in the range of 90.5 to 92.4 °C. Besides, in data set [1] (setting [4]), the Ki is 0.0502 ± 0.00247 µM. Besides, the Ki in data set [1] (setting [5]) was 0.0501 µM. This compound returned a Ki in data set [2] of 0.593 ± 0.062 µM. This compound also came in with an inhibition at 100 µM in data set [3] of 30%.

These data come from article PMC7594025, “Synthesis, Docking, 3-D-Qsar, and Biological Assays of Novel Indole Derivatives Targeting Serotonin Transporter, Dopamine D2 Receptor, and Mao-A Enzyme: In the Pursuit for Potential Multitarget Directed Ligands” (Molecules, 2020).
